From patent publication US9585958B2, “Compositions and methods for reducing lactate levels” (The Regents of the University of California, priority 2013, dated 2017)

Experiments:
[1] = Log D measurements (octanol/PBS, 13C NMR); format: physicochemical; settings: octanol / 1×PBS pH 7.4, 16 h shaking
Procedure: 45 μmoles of ABA and 3-^13C-sodium L-lactate dissolved in 500 μL of 1×PBS at pH 7.4 were added to 500 μL of octanol and vigorously shaken for 16 h and then centrifuged for 2 min at 10,000×Gs to extract PBS. A 200 μL of D2O along with 188.7 μmoles (10 μL of 99.8%) of acetonitrile was added to the PBS and a carbon NMR was performed with 16 scans. The area under the curve for the NMR traces obtained was calculated using Mest-ReC software. Similarly, a carbon NMR was performed with 16 scans on a solution containing 45 μmoles of ABA, 45 μmoles of 3-^13C-sodium L-lactate dissolved in 500 μL of 1×PBS at pH 7.4 along with 200 μL of D2O and with 188.7 μmoles (10 μL of 99.8%) of acetonitrile. Area under the curve for the NMR traces obtained was calculated using Mest-ReC software. Acetonitrile peak at δ=1.47 was used as reference.
Furthermore, as controls, 3-^13C-sodium L-lactate dissolved in 500 μL of 1×PBS at pH 7.4 was added to 500 μL of octanol and vigorously shaken for 16 h and then centrifuged for 2 min at 10,000×Gs to extract PBS. A 200 μL of D2O along with 188.7 μmoles (10 μL of 99.8%) of acetonitrile was added to the PBS and a carbon NMR was performed with 16 scans. The area under the curve for the NMR traces obtained was calculated using Mest-ReC software. […] Area under the curve for the NMR traces obtained was calculated using Mest-ReC software.

[2] = Permeation through DMPC liposomes (lactate assay kit); format: in vitro ADME; settings: 112 mM
Procedure: It was investigated whether ABA can enhance lactate membrane permeability. Liposomes were generated from 1,2-dimyristoyl-sn-glycero-3-phosphocholine (DMPC), by evaporating 400 μL of 1 mg/mL of DMPC in chloroform in a 100 mL glass flask to completion; and the lipids were re-suspended in 400 μL PBS, thereby forming the liposomes. 50 μL of the liposomes and 50 μL of 112 mM ABA premixed with lactate were then added to the wells of the 96-well plate, and lactate assay kit was performed, according to the manufacturer's instructions. As controls, 50 μL of PBS and 50 μL of 112 mM ABA premixed with lactate were then added to the wells of the 96-well plate and lactate assay kit was performed, according to the manufacturer's instructions. Furthermore, for determining the permeability of lactate through the liposomes, 50 μL of the liposomes and 50 μL of 112 mM lactate were added to the wells of the 96-well plate, and lactate assay kit was performed, according to the manufacturer's instructions. As controls, 50 μL of PBS and 50 μL of 112 mM lactate were added to the wells of the 96-well plate and lactate assay kit was performed, according to the manufacturer's instructions.

C[C@H](O)C(=O)[O-].[Na+] [lactate, sodium L-lactate]
Log D [1]: −2 | permeation through liposomes [2]: did not permeate through the liposomes
